# Assay results as given in US10174029B2, “Pyrimidine-2,4-diamine derivatives for treatment of cancer” (THOMAS HELLEDAYS STIFTELSE FOR MEDICINSK FORSKNING, priority 2012, dated 2019).
# Molecular target: MTH1 (Homo sapiens, UniProt P36639)
# Experiment: MTH1 enzymatic assay and IC50 value determination (malachite green)
# Assay type: biochemical
# Details: MTH1 4.8 nM, dGTP 100 μM, 15 minutes at 22° C.; group: between 2 μM and 10 μM
# Protocol: MTH1 Enzymatic Assay and IC50 Value Determination
# MTH1 catalyzes the hydrolysis of dGTP to dGMP and PPi. By coupling the reaction to pyrophosphatase added in excess PPi is converted to Pi that can be detected by using the malachite green assay reagent. Briefly, for IC50 value determination the compound to be analyzed is diluted in assay buffer in a 1:3 dilution series generating 12 different compound concentrations giving a final DMSO concentration of 1% in the assay well. MTH1 diluted in assay buffer (100 mM Tris-acetate, 40 mM NaCl, 10 mM magnesium acetate, 1 mM DTT and 0.005% Tween 20) fortified with E. coli pyrophosphatase (0.8 U/ml) is added to a final concentration of 4.8 nM. dGTP diluted in assay buffer is added to a final concentration of 100 μM. The reaction mixture is incubated with shaking for 15 minutes at 22° C. To 100 μl reaction mixture is 25 μl Malachite green assay regent (0.095% Malachite green in 17% H2SO4, 1.5% Ammonium molybdate, 0.17% Tween 20) added followed by incubation with shaking for 15 minutes at 22° C.
# The absorbance of the assay plate is read at 630 nm using an EnVision Multilabel plate reader. The IC50 value is determined by fitting a dose response curve to the data points using nonlinear regression analysis and the equation Y=Bottom+(Top−Bottom)/(1+10^((Log IC50−X)*HillSlope)), where Y is the read absorbance at 630 nm and X is log [compound].
row,SMILES,IC50 [nM]
1,"Cc1cccc(-c2cc(NCC(C)(C)C)nc(N)n2)c1C [Example 181, 6-(2,3-dimethylphenyl)-4-N-(2,2-dimethylpropyl)pyrimidine-2,4-diamine]",2000 to 10000
2,"Cc1cccc(-c2cc(NCCC(=O)N3CCOCC3)nc(N)n2)c1C [Example 277, 3-{[2-amino-6-(2,3-dimethylphenyl)pyrimidin-4-yl]amino}-1-(morpholin-4-yl)propan-1-one]",2000 to 10000
3,"CC(C)(C)Nc1cc(-c2ccc(Cl)cc2)nc(N)n1 [Example 14, 4-N-tert-butyl-6-(4-chlorophenyl)pyrimidine-2,4-diamine]",2000 to 10000

# Same assay, conditions: MTH1 4.8 nM, dGTP 100 μM, 15 minutes at 22° C.; group: less than 200 nM
row,SMILES,IC50 [nM]
1,"Nc1nc(NC2CC2)cc(-c2cccc3ncccc23)n1 [Example 232, 4-N-cyclopropyl-6-(quinolin-5-yl)pyrimidine-2,4-diamine]",< 200
2,"Cc1cccc(-c2cc(NCc3cnn(-c4ccc(F)cc4)c3)nc(N)n2)c1C [Example 348, 6-(2,3-Dimethylphenyl)-4-N-{[1-(4-fluorophenyl)-1H-pyrazol-4-yl]methyl}pyrimidine-2,4-diamine]",< 200
3,"Cc1cccc(-c2cc(NCCCNS(=O)(=O)c3ccccc3S(C)(=O)=O)nc(N)n2)c1C [Example 403, N-(3-{[2-Amino-6-(2,3-dimethylphenyl)pyrimidin-4-yl]amino}propyl)-2-methanesulfonylbenzene-1-sulfonamide]",< 200
4,"CNC(=O)c1ccc(-c2cc(NC)nc(N)n2)cc1 [Example 110, 4-[2-amino-6-(methylamino)pyrimidin-4-yl]-N-methylbenzamide]",< 200
5,"Cc1ccc(CCNc2cc(-c3cccc(C)c3C)nc(N)n2)cc1 [Example 127, 6-(2,3-dimethylphenyl)-4-N-[2-(4-methylphenyl)ethyl]pyrimidine-2,4-diamine]",< 200
6,"Nc1nc(NC2CC2)cc(-c2cccc3[nH]ccc23)n1 [Example 230, 4-N-cyclopropyl-6-(1H-indol-4-yl)pyrimidine-2,4-diamine]",< 200
7,"Cc1cccc(-c2cc(N[C@@H](C)C3CC3)nc(N)n2)c1C [Example 168, 4-N-[(1S)-1-cyclopropylethyl]-6-(2,3-dimethylphenyl)pyrimidine-2,4-diamine]",< 200
8,"CNc1cc(-c2ccc(F)c(C)c2C)nc(N)n1 [Example 260, 6-(4-fluoro-2,3-dimethylphenyl)-4-N-methylpyrimidine-2,4-diamine]",< 200
9,"C=CC(=O)Nc1ccc(-c2cc(NC)nc(N)n2)cc1 [Example 317, N-{4-[2-Amino-6-(methylamino)pyrimidin-4-yl]phenyl}prop-2-enamide]",< 200
10,"Cc1cccc(-c2cc(NCCNc3ccc(Br)cn3)nc(N)n2)c1C [Example 451, 4-N-{2-[(5-bromopyridin-2-yl)amino]ethyl}-6-(2,3-dimethylphenyl)pyrimidine-2,4-diamine]",< 200
11,"CNc1cc(-c2cccc(NC(=O)C(=O)c3ccccc3)c2)nc(N)n1 [Example 316, N-{3-[2-Amino-6-(methylamino)pyrimidin-4-yl]phenyl}-2-oxo-2-phenylacetamide]",< 200
12,"Cc1cccc(-c2cc(NCCc3ccc(S(C)(=O)=O)cc3)nc(N)n2)c1C [Example 331, 6-(2,3-Dimethylphenyl)-4-N-[2-(4-methanesulfonylphenyl)ethyl]pyrimidine-2,4-diamine]",< 200
13,"CNc1cc(-c2cccc(CO)c2)nc(N)n1 [Example 101, {3-[2-amino-6-(methylamino)pyrimidin-4-yl]phenyl}methanol]",< 200
14,"C#CCNc1cc(-c2cccc(Cl)c2C)nc(N)n1 [Example 429, 6-(3-chloro-2-methylphenyl)-4-N-(prop-2-yn-1-yl)pyrimidine-2,4-diamine]",< 200
15,"CNc1cc(-c2cccc(C(F)(F)F)c2F)nc(N)n1 [Example 85, 6-[2-fluoro-3-(trifluoromethyl)phenyl]-4-N-methylpyrimidine-2,4-diamine]",< 200
16,"CNc1cc(-c2cccc(C(=O)Nc3ccc(C)cc3)c2)nc(N)n1 [Example 115, 3-[2-amino-6-(methylamino)pyrimidin-4-yl]-N-(4-methylphenyl)benzamide]",< 200
17,"Cc1cccc(-c2cc(NCCc3ccc(S(=O)(=O)N(C)C)cc3)nc(N)n2)c1C [Example 416, 4-(2-{[2-amino-6-(2,3-dimethylphenyl)pyrimidin-4-yl]amino}ethyl)-N,N-dimethylbenzene-1-sulfonamide]",< 200
18,"CNc1cc(-c2ccnc(OC)c2Cl)nc(N)n1 [Example 120, 6-(3-chloro-2-methoxypyridin-4-yl)-4-N-methylpyrimidine-2,4-diamine]",< 200
19,"CCNc1cc(-c2cn(S(=O)(=O)c3ccc(C)cc3)c3ccccc23)nc(N)n1 [Example 159, 4-N-ethyl-6-[1-(4-methylbenzenesulfonyl)-1H-indol-3-yl]pyrimidine-2,4-diamine]",< 200

row,SMILES,IC50 [nM]
1,"CNc1cc(-c2ccc(OCC3CCN(C(=O)OC(C)(C)C)CC3)c(COC)c2)nc(N)n1 [Example 256, tert-butyl 4-{4-[2-amino-6-(methylamino)pyrimidin-4-yl]-2-(methoxymethyl)phenoxymethyl}piperidine-1-carboxylate]",< 200
2,"Cc1cccc(-c2cc(NCCCNC(=O)Nc3cc(Cl)nc(Cl)c3)nc(N)n2)c1C [Example 361, 3-(3-{[2-Amino-6-(2,3-dimethylphenyl)pyrimidin-4-yl]amino}propyl)-1-(2,6-dichloropyridin-4-yl)urea]",< 200
3,"CNc1cc(-c2cc(Cl)ccc2F)nc(N)n1 [Example 210, 6-(5-chloro-2-fluorophenyl)-4-N-methylpyrimidine-2,4-diamine]",< 200
4,"CNc1cc(-c2cn(S(=O)(=O)c3ccc(Cl)cc3)c3ccccc23)nc(N)n1 [Example 144, 6-[1-(4-chlorobenzenesulfonyl)-1H-indol-3-yl]-4-N-methylpyrimidine-2,4-diamine]",< 200
5,"Cc1cccc(-c2cc(NCCCNS(=O)(=O)c3c(C)noc3C)nc(N)n2)c1C [Example 359, N-(3-{[2-Amino-6-(2,3-dimethylphenyl)pyrimidin-4-yl]amino}propyl)-3,5-dimethyl-1,2-oxazole-4-sulfonamide]",< 200
6,"Cc1cccc(-c2cc(NCc3cnc(Cl)cn3)nc(N)n2)c1C [Example 254, 4-N-[(5-chloropyrazin-2-yl)methyl]-6-(2,3-dimethylphenyl)pyrimidine-2,4-diamine]",< 200
7,"CNc1cc(-c2ccc(C#N)cc2)nc(N)n1 [Example 51, 4-[2-amino-6-(methylamino)pyrimidin-4-yl]benzonitrile]",< 200
8,"CNc1cc(-c2ccc(NS(C)(=O)=O)cc2)nc(N)n1 [Example 46, N-{4-[2-amino-6-(methylamino)pyrimidin-4-yl]phenyl}methanesulfonamide]",< 200
9,"Cc1cccc(-c2cc(NCc3ccc(N(C)C)cc3)nc(N)n2)c1C [Example 346, 4-N-{[4-(Dimethylamino)phenyl]methyl}-6-(2,3-dimethylphenyl)pyrimidine-2,4-diamine]",< 200
10,"Cc1cccc(-c2cc(NCCc3c[nH]cn3)nc(N)n2)c1C [Example 408, 6-(2,3-dimethylphenyl)-4-N-[2-(1H-imidazol-4-yl)ethyl]pyrimidine-2,4-diamine]",< 200
11,"CNc1cc(-c2cc(C#N)ccc2C)nc(N)n1 [Example 211, 3-[2-amino-6-(methylamino)pyrimidin-4-yl]-4-methylbenzonitrile]",< 200
12,"Cc1cccc(-c2cc(NCCCNC(=O)OC(C)(C)C)nc(N)n2)c1C [Example 275, tert-butyl N-(3-{[2-amino-6-(2,3-dimethylphenyl)pyrimidin-4-yl]amino}propyl)-carbamate]",< 200
13,"CNc1cc(-c2cccc(NC(=O)c3ncccc3O)c2)nc(N)n1 [Example 308, N-{3-[2-amino-6-(methylamino)pyrimidin-4-yl]phenyl}-3-hydroxypyridine-2-carboxamide]",< 200
14,"Cc1ccc(Cl)cc1-c1cc(NC2CCC2)nc(N)n1 [Example 220, 6-(5-chloro-2-methylphenyl)-4-N-cyclobutylpyrimidine-2,4-diamine]",< 200
15,"Cc1cccc(-c2cc(NCCc3ccccn3)nc(N)n2)c1C [Example 129, 6-(2,3-dimethylphenyl)-4-N-[2-(pyridin-2-yl)ethyl]pyrimidine-2,4-diamine]",< 200
16,"C#CCNc1cc(-c2cccc(C)c2C)nc(N)n1 [Example 386, 6-(2,3-Dimethylphenyl)-4-N-(prop-2-yn-1-yl)pyrimidine-2,4-diamine]",< 200
17,"Cc1cc(CCCNc2cc(-c3cccc(C)c3C)nc(N)n2)n[nH]1 [Example 276, 6-(2,3-dimethylphenyl)-4-N-[3-(5-methyl-1H-pyrazol-3-yl)propyl]pyrimidine-2,4-diamine]",< 200
18,"CNc1cc(-c2cccc(C(=O)N3CCOCC3)c2)nc(N)n1 [Example 44, 4-N-methyl-6-[3-(morpholine-4-carbonyl)phenyl]pyrimidine-2,4-diamine]",< 200
19,"Cc1c(-c2cc(NCCc3ccc(S(N)(=O)=O)cc3)nc(N)n2)ccc(Cl)c1Cl [Example 428, 4-(2-{[2-amino-6-(3,4-dichloro-2-methylphenyl)pyrimidin-4-yl]amino}ethyl)benzene-1-sulfonamide]",< 200
